Activity calls are given as the source filed them. No cut-off for these calls is given here.
Tests used:
Cell membrane [1] = experiment: Induction of mitochondrial membrane potential loss in human HepG2 cells assessed as decrease in fluorescence at 10 uM measured after 12 hrs by Rhodamine 123 staining based flow cytometry (reference value: 66.8%); assay type: cell membranes; parameters: scale not given: the % may be the effect or the level left
HepG2 [2] = experiment: Induction of apoptosis in human HepG2 cells assessed as increase in number of apoptotic cells at 5 to 10 uM measured after 24 hrs by annexin V-mCherry staining based fluorescence microscopic analysis; assay type: functional, cell-based; conditions: dose 5-10 µM
HepG2 [3] = experiment: Induction of cell cycle arrest in human HepG2 cells assessed as assessed as accumulation of cells at S phase at 10 uM incubated for 12 hrs by PI staining based flow cytometry analysis (reference value: 39.6%); assay type: functional
[4] = Upregulation of DDIT3 expression level in human HepG2 cells assessed as fold change by KEGG enrichment analysis; assay type: functional
[5] = Upregulation of PGF expression level in human HepG2 cells assessed as fold change by KEGG enrichment analysis; assay type: functional
HepG2 [6] = experiment: Induction of cell cycle arrest in human HepG2 cells assessed as accumulation of cells at 2N phase at 5 uM incubated for 48 hrs by PI staining based flow cytometry analysis (reference value: 26.0%); assay type: functional
[7] = […] of CCND1 expression level in human HepG2 cells assessed as fold change by KEGG enrichment analysis; assay type: functional
HepG2 [8] = experiment: Induction of cell cycle arrest in human HepG2 cells assessed as accumulation of cells at <2N phase at 10 uM incubated for 24 hrs by PI staining based flow cytometry analysis (reference value: 0.027%); assay type: functional
[9] = Upregulation of SESN3 expression level in human HepG2 cells assessed as fold change by KEGG enrichment analysis; assay type: functional
HepG2 [10] = experiment: Induction of cell cycle arrest in human HepG2 cells assessed as accumulation of cells at >G2/M phase at 10 uM incubated for 48 hrs by PI staining based flow cytometry analysis (reference value: 28.0%); assay type: functional
HepG2 [11] = experiment: Induction of apoptosis in human HepG2 cells assessed as viable cells at 20 uM incubated for 48 hrs by annexin V-FITC/PI staining based flow cytometry analysis (reference value: 99.3%); assay type: functional; conditions: read-out: Activity
[12] = Upregulation of SOCS1 expression level in human HepG2 cells assessed as fold change by KEGG enrichment analysis; assay type: functional
[13] = Upregulation of FGF21 expression level in human HepG2 cells assessed as fold change by KEGG enrichment analysis; assay type: functional
Cell membrane [14] = experiment: Induction of mitochondrial membrane potential loss in human HepG2 cells assessed as decrease in fluorescence measured after 48 hrs by Rhodamine 123 staining based flow cytometry; assay type: cell membranes; conditions: dose 5-20 µM
HepG2 [15] = experiment: Induction of cell cycle arrest in human HepG2 cells assessed as accumulation of cells at G2/M phase at 10 uM incubated for 48 hrs by PI staining based flow cytometry analysis (reference value: 6.38%); assay type: functional
HepG2 [16] = experiment: Induction of autophagy in human HepG2 cells assessed as increase in formation of autophagosomes at 5 to 10 uM incubated for 24 hrs by acridine orange staining based laser confocal microscopic analysis; assay type: functional, cell-based; conditions: dose 5-10 µM
HepG2 [17] = experiment: Upregulation of cytochrome c level in human HepG2 cells at 5 to 20 uM measured after 48 hrs by Western blot analysis; assay type: functional, cell-based; conditions: dose 5-20 µM
HepG2 [18] = experiment: Induction of apoptosis in human HepG2 cells assessed as necrotic cells at 5 uM incubated for 48 hrs by annexin V-FITC/PI staining based flow cytometry analysis (reference value: 0%); assay type: functional
Cell membrane [19] = experiment: Induction of mitochondrial membrane potential loss in human HepG2 cells assessed as decrease in fluorescence at 5 uM measured after 48 hrs by Rhodamine 123 staining based flow cytometry (reference value: 66.8%); assay type: cell membranes; parameters: scale not given: the % may be the effect or the level left
[20] = Upregulation of IL1A expression level in human HepG2 cells assessed as fold change by KEGG enrichment analysis; assay type: functional
HepG2 [21] = experiment: Induction of morphological changes in human HepG2 cells assessed as appearance of luminous morphology at 40 uM measured after 12 to 24 hrs by fluorescence inverted microscopic analysis; assay type: functional, cell-based; conditions: time 12-24 hrs
BEL-7404 tumor cell line = experiment: Antiproliferative activity against human BEL-7404 tumor cell line incubated for 48 hrs by MTT assay; assay type: functional, cell-based; conditions: BEL-7404, 48 h
HepG2 [22] = experiment: Induction of cell cycle arrest in human HepG2 cells assessed as accumulation of cells at >G2/M phase at 5 uM incubated for 48 hrs by PI staining based flow cytometry analysis (reference value: 28.0%); assay type: functional
HepG2 [23] = experiment: Induction of cell cycle arrest in human HepG2 cells assessed as assessed as accumulation of cells at G2/M phase at 10 uM incubated for 12 hrs by PI staining based flow cytometry analysis (reference value: 6.38%); assay type: functional
4T1 [24] = experiment: Antitumor activity in mouse 4T1 cells xenografted in Balb/c mouse assessed as inhibition of tumor growth at 6 mg/kg, iv measured every two days for 14 days; assay type: functional, organism-based; conditions: time 14.0 day
HepG2 [25] = experiment: Induction of cell cycle arrest in human HepG2 cells assessed as accumulation of cells at >G2/M phase at 20 uM incubated for 48 hrs by PI staining based flow cytometry analysis (reference value: 28.0%); assay type: functional
HepG2 [26] = experiment: Downregulation of MDM2 level in human HepG2 cells at 5 to 20 uM measured after 48 hrs by Western blot analysis; assay type: functional, cell-based; conditions: dose 5-20 µM
[27] = Upregulation of CDKN1A expression level in human HepG2 cells assessed as fold change by KEGG enrichment analysis; assay type: functional
HepG2 [28] = experiment: Induction of cell cycle arrest in human HepG2 cells assessed as assessed as accumulation of cells at 2N phase at 10 uM incubated for 12 hrs by PI staining based flow cytometry analysis (reference value: 26.0%); assay type: functional
[29] = Apparent permeability of compound; assay type: ADME; conditions: not told
HepG2 [30] = experiment: Induction of morphological changes in human HepG2 cells assessed as increase in cell death at 40 uM measured after 48 hrs by fluorescence inverted microscopic analysis; assay type: functional, cell-based
HeLa = experiment: Antiproliferative activity against human HeLa cells incubated for 48 hrs by MTT assay; assay type: functional, cell-based
4T1 [31] = experiment: Antiproliferative activity against mouse 4T1 cells incubated for 48 hrs by MTT assay; assay type: functional, cell-based; conditions: 4T1, 48 h
[32] = Antiproliferative activity against mouse L929 cells incubated for 48 hrs by MTT assay; assay type: toxicity, cell-based
HepG2 [33] = experiment: Induction of cell cycle arrest in human HepG2 cells assessed as accumulation of cells at 2N phase at 20 uM incubated for 48 hrs by PI staining based flow cytometry analysis (reference value: 26.0%); assay type: functional
Cell membrane [34] = experiment: Induction of mitochondrial membrane potential loss in human HepG2 cells assessed as decrease in fluorescence at 10 uM measured after 24 hrs by Rhodamine 123 staining based flow cytometry (reference value: 66.8%); assay type: cell membranes; parameters: scale not given: the % may be the effect or the level left
HepG2 [35] = experiment: Induction of morphological changes in human HepG2 cells assessed as appearance of round morphology at 40 uM measured after 12 to 24 hrs by fluorescence inverted microscopic analysis; assay type: functional, cell-based; conditions: time 12-24 hrs
[36] = Toxicity in Balb/c mouse assessed as effect on body weight at 6 mg/kg, iv measured every two days for 14 days; assay type: organism-based; conditions: in vivo, 336 h, time 14 day

For `CC(C)C[C@H]1NC(=O)[C@H]([C@@H](C)OCc2ccccc2)NC(=O)[C@H]2CCCN2C(=O)CN2C(=O)c3ccccc3[C@@]2(O)CN(Cc2ccccc2)C(=O)[C@H](Cc2ccccc2)NC(=O)[C@H]2CCCN2C(=O)[C@H](Cc2c[nH]c3ccccc23)NC1=O`, the Activity (Cell membrane [1]) was 55.6%, the Activity (HepG2 [2]) was “Active” and the Activity (HepG2 [3]) was 18.9%. The “fold change (FC)” value [4] was 1.968, the “fold change (FC)” value [5] was 2.135 and the Activity (HepG2 [6]) was 28.7%. For the same compound, the “fold change (FC)” value [7] was -1.18, the Activity (HepG2 [8]) was 35.9% and the “fold change (FC)” value [9] was 1.529. For the same compound, the Activity (HepG2 [10]) was 0%, the viability at 20 µM (HepG2 [11]) was 52% and the “fold change (FC)” value [12] was 1.707. For the same compound, the “fold change (FC)” value [13] was 9.022, the Activity (Cell membrane [14]) was “Dose-Dependent Effect” and the Activity (HepG2 [15]) was 23%. For the same compound, the Activity (HepG2 [16]) was “Active”, the Activity (HepG2 [17]) was “Active” and the Activity (HepG2 [18]) was 0%. For the same compound, the Activity (Cell membrane [19]) was 41.6%, the “fold change (FC)” value [20] was 2.186 and the Activity (HepG2 [21]) was “Active”. It also gave an IC50 (BEL-7404 tumor cell line) of 17.1 µM, an Activity (HepG2 [22]) of 2.76% and an Activity (HepG2 [23]) of 12.4%. The Activity (4T1 [24]) was “Active”, the Activity (HepG2 [25]) was 1.12% and the Activity (HepG2 [26]) was “Active”. For the same compound, the “fold change (FC)” value [27] was 1.175, the Activity (HepG2 [28]) was 27.8% and the Papp [29] was 0.416 ×10⁻⁶ cm/s. The Activity (HepG2 [30]) was “Active”, the IC50 (HeLa) was 16.9 µM and the IC50 (4T1 [31]) was 38.5 µM. For the same compound, the IC50 at 48 h [32] was > 100 µM, the Activity (HepG2 [33]) was 21.9% and the Activity (Cell membrane [34]) was 45.4%. The Activity (HepG2 [35]) was “Active” and the Activity [36] was “Non-Toxic”.

Source: ChEMBL document CHEMBL5550186, “Exploring the Potential of Cyclic Peptidyl Antitumor Agents Derived from Natural Macrocyclic Peptide Phakellistatin 13” (J Med Chem, 2024)
